Test results as given in patent publication US7626031B2, “Substituted 3-(diarylmethylene)indolin-2-ones and methods of their use” (Symphony Evolution, Inc., priority 2002, dated 2009).

What was measured:
Flt-1 = Flt-1 (Homo sapiens, UniProt P17948); assay: Kinase assay, Flt-1 (33P-ATP incorporation or luciferase-coupled ATP consumption); type: biochemical; details: read-out: Flt1 IC50
Procedure: Kinase assays were performed by measurement of incorporation of γ-^33P ATP into immobilized myelin basic protein (MBP). […] Plates were washed 3× with 100 μl TBS. […] Compound dilutions were performed in DMSO and added to assay wells to a final DMSO concentration of 1%. Each data point was measured in duplicate, and at least two duplicate assays were performed for each individual compound determination. Enzyme was added to final concentrations of 10 nM or 20 nM, for example. A mixture of unlabeled ATP and γ-^33P ATP was added to start the reaction (2×10^6 cpm of γ-^33P ATP per well (3000 Ci/mmole) and either 10 μM or 30 μM unlabeled ATP, typically. The reactions were carried out for 1 hour at room temperature with shaking. Plates were washed 7× with TBS, followed by the addition of 50 μl/well scintillation fluid (Wallac). Plates were read using a Wallac Trilux counter. This is only one format of such assays, various other formats are possible, as known to one of ordinary skill in the art.
Tyrosine kinase activity is determined by 1) measurement of kinase-dependent ATP consumption by in the presence of a generic substrate such as, polyglutamic acid, tyrosine, 4:1 (pEY), by luciferase/luciferin-mediated chemiluminescence or; 2) incorporation of radioactive phosphate derived from ^33P-ATP into a generic substrate which has been adsorbed onto the well surface of polystyrene microtiter plates. Phosphorylated substrate products are quantified by scintillation spectrometry.
(§1) Kinase activity and compound inhibition are investigated using one or more assay formats. The ATP concentrations for each assay are selected to be close to the Michaelis-Menten constant (KM) for each individual kinase. Dose-response experiments are performed at 10 different inhibitor concentrations in a 384-well plate format. […] Exemplary kinase assays are described below. KDR Assay

Fyn = Fyn (Homo sapiens, UniProt P06241); assay: Kinase assay, Fyn; type: biochemical
Procedure: as §1

PDGFR alpha = PDGFR alpha (Homo sapiens, UniProt P16234); assay: Kinase assay, PDGFR alpha (33P-ATP incorporation or luciferase-coupled ATP consumption); type: biochemical; details: read-out: PDGF-R-A IC50
Summary of the method: (§2)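 Kinase activity measured either by γ-33P ATP incorporation into immobilized substrate (MBP or pEY) with scintillation counting, or by luciferase-based ATP consumption with pEY. Enzyme 10 or 20 nM; ATP near each kinase's KM (e.g. 10 or 30 μM); 1 h at room temperature, 1% DMSO, 10-point dose-response.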

IRK = IRK (Homo sapiens, UniProt P06213); assay: Kinase assay, IRK; type: biochemical
Procedure: as §1

EGFR = EGFR (Homo sapiens, UniProt P00533); assay: Kinase assay, EGFR (33P-ATP incorporation or luciferase-coupled ATP consumption); type: biochemical
Summary of the method: as §2

[1] = target: T1, KDR (baculovirus expressed human KDR kinase domain D807-V1356) (Homo sapiens, UniProt P35968); assay: biochemical
T1 construct: human KDR kinase domain D807-V1356; host or cells: baculovirus expression system
Summary of the method: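 Baculovirus human KDR kinase domain (D807–V1356) with ATP near its KM; 10-point dose-response, 4 h at ambient temperature. Activity taken as percent ATP remaining, detected by luciferase–luciferin chemiluminescence.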

EphA2 = EphA2 (Homo sapiens, UniProt P29317); assay: Kinase assay, EphA2 (33P-ATP incorporation or luciferase-coupled ATP consumption); type: biochemical
Summary of the method: as §2

FGFR1 = FGFR1 (Homo sapiens, UniProt P11362); assay: Kinase assay, FGFR1 (33P-ATP incorporation or luciferase-coupled ATP consumption); type: biochemical
Summary of the method: as §2

Chain of IRK (P06213 28-1382): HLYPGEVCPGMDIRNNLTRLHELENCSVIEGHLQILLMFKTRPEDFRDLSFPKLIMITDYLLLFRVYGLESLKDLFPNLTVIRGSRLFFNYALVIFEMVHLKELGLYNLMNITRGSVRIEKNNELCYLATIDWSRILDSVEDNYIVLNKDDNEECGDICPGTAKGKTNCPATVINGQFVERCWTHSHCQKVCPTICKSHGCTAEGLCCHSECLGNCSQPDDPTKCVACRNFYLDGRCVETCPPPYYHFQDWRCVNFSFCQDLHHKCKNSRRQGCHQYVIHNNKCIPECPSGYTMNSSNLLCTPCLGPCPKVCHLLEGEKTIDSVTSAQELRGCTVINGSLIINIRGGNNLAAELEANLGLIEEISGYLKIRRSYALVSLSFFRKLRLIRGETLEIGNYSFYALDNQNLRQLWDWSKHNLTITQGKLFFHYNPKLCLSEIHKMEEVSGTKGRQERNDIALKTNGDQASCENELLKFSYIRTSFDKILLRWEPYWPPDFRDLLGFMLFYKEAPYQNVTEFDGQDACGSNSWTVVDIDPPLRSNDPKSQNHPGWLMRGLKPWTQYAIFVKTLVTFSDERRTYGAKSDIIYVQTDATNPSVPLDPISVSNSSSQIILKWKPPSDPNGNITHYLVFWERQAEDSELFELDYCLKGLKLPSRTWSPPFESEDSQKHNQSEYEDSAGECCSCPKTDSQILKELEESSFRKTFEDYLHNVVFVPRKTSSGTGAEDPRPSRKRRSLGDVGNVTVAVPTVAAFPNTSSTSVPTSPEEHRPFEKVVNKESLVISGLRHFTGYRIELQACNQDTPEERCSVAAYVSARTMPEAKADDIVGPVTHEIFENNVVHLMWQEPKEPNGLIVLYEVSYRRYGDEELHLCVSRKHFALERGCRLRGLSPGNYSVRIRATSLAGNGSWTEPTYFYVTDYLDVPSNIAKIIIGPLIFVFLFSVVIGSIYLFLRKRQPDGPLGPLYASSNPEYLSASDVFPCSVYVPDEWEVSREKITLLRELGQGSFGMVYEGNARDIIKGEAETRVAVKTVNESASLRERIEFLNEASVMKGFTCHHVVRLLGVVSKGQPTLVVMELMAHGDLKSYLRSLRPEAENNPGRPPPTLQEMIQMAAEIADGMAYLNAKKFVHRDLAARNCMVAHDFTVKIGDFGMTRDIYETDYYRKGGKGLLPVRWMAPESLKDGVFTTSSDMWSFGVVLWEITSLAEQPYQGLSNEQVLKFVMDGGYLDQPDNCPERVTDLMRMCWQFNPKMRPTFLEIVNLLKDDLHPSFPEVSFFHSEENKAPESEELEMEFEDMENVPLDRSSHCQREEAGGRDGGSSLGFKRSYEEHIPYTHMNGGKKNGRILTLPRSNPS
Chain of EGFR (P00533 25-1210, species assumed): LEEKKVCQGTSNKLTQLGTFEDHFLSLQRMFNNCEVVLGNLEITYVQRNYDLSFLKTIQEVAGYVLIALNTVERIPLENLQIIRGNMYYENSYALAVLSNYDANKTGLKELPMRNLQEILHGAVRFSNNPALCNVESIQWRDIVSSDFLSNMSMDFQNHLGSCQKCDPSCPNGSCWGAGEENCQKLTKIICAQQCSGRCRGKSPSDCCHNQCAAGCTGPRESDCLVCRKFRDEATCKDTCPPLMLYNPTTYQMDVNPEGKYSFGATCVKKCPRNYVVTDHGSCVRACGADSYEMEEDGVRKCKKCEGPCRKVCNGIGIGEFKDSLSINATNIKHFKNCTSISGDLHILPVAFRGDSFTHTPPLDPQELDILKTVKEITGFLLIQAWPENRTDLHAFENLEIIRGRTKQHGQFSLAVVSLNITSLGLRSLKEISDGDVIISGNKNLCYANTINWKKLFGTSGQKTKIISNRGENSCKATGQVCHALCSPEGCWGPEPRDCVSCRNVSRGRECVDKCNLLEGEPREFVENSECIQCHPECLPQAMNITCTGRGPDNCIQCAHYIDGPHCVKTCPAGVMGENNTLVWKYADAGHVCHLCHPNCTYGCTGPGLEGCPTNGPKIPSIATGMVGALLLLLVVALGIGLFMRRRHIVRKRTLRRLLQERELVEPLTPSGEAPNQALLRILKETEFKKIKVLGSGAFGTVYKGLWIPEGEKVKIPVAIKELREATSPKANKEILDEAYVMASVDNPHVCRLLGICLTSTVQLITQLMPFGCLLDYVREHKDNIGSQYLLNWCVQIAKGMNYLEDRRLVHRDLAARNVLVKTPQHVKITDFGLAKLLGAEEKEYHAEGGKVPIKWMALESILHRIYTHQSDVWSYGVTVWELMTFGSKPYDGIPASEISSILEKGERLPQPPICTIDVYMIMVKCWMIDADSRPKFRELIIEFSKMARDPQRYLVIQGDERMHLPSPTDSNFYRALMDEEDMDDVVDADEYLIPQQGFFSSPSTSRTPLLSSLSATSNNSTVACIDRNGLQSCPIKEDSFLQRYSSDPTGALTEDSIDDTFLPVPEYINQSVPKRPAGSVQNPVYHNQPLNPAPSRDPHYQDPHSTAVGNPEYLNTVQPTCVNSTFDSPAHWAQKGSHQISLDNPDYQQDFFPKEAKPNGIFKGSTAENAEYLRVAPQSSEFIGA
Chain of EphA2 (P29317 24-976, species assumed): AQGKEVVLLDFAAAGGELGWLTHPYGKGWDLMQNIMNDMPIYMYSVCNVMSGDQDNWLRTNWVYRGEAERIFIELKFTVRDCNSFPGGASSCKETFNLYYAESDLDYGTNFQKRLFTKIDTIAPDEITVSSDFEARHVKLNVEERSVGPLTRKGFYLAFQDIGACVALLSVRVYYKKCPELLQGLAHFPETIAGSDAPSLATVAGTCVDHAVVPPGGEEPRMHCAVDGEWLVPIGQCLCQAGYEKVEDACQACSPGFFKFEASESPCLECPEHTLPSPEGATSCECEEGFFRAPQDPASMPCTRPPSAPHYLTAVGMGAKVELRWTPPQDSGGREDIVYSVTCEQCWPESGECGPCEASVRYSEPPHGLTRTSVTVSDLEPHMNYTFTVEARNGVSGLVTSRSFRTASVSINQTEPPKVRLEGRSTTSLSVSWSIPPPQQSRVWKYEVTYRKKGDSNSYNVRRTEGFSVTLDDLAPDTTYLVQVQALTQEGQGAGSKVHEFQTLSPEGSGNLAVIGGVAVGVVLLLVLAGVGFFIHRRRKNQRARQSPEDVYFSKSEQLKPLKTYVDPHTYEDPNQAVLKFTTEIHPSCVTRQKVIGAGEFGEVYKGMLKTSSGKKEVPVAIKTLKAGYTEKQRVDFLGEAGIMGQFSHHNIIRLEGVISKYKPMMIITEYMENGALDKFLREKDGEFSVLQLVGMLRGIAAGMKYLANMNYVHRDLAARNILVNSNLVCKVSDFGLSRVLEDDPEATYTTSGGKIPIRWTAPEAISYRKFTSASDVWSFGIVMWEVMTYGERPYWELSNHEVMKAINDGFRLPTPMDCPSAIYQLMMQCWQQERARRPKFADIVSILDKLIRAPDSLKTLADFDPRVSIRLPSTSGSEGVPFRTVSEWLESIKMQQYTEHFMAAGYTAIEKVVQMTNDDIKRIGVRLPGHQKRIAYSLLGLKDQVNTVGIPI
Chain of Fyn (P06241 whole entry, species assumed): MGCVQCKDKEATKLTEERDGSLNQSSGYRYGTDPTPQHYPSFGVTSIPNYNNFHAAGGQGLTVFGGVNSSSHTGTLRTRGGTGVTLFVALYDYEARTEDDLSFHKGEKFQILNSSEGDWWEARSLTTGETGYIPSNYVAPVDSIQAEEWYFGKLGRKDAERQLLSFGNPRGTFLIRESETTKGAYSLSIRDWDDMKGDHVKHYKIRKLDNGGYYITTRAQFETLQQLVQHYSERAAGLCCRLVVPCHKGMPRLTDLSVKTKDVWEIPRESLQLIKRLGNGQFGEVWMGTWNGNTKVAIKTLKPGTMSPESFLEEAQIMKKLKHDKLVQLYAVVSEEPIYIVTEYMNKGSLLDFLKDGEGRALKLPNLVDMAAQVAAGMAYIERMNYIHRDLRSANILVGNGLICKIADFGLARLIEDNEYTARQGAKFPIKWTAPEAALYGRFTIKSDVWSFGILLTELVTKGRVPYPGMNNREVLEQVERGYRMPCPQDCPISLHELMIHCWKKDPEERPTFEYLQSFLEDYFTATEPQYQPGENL
Chain of FGFR1 (P11362 22-822, species assumed): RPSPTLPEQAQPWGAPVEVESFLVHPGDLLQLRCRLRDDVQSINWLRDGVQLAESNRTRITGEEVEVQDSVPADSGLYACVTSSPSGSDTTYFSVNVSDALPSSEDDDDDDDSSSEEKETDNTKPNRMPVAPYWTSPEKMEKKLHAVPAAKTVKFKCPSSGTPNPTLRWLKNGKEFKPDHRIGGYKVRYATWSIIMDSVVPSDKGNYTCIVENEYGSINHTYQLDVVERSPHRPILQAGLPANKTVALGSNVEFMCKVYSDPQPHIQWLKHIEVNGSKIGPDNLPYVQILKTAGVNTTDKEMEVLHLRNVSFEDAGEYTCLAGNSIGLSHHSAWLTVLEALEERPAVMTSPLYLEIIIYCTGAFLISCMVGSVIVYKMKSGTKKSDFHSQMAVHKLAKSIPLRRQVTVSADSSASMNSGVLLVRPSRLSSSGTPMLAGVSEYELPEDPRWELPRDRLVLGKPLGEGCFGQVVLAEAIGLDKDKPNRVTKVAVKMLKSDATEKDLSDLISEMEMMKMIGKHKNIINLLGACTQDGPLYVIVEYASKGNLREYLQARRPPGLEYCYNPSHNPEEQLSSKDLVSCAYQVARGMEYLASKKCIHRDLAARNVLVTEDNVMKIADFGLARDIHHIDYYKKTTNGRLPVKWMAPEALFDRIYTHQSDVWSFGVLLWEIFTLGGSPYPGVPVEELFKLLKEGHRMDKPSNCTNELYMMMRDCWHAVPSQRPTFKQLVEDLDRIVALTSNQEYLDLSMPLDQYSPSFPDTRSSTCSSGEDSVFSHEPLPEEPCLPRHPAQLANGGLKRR

| Structure (SMILES) | IC50 (Flt-1) | IC50 (Fyn) | IC50 (PDGFR alpha) | IC50 (IRK) | IC50 (EGFR) | IC50 [1] | IC50 (EphA2) | IC50 (FGFR1) |
| --- | --- | --- | --- | --- | --- | --- | --- | --- |
| CCN1CCC(Nc2ccc3c(c2)/C(=C(\c2ccc(F)cc2)c2nc4ccccc4[nH]2)C(=O)N3)CC1 [Entry 16, (3Z)-3-[1H-benzimidazol-2-yl(4-fluorophenyl)methylidene]-5[(1-ethylpiperidin-4-yl)amino]-1,3-dihydro-2H-indol-2-one] | 50 to 500 nM | 50 to 500 nM | < 50 nM | 500 to 5000 nM | 500 to 5000 nM | < 50 nM | 500 to 5000 nM | – |
| CCN1CCC(Nc2ccc3c(c2)/C(=C(\c2cccc([N+](=O)[O-])c2)c2nc4ccccc4[nH]2)C(=O)N3)CC1 [Entry 19, (3Z)-3-[1H-benzimidazol-2-yl(3-nitrophenyl)methylidene]-5-[(1-ethylpiperidin-4-yl)amino]-1,3-dihydro-2H-indol-2-one] | 50 to 500 nM | 50 to 500 nM | < 50 nM | 500 to 5000 nM | 500 to 5000 nM | < 50 nM | 500 to 5000 nM | – |
| CCN1CCC(Nc2ccc3c(c2)/C(=C(\c2cccc(C#N)c2)c2nc4ccccc4[nH]2)C(=O)N3)CC1 [Entry 20, 3-((Z)-1H-benzimidazol-2-yl{5-[(1-ethylpiperidin-4-yl)amino]-2-oxo-1,2-dihydro-3H-indol-3-ylidene)methyl) benzonitrile] | 500 to 5000 nM | 50 to 500 nM | 50 to 500 nM | 500 to 5000 nM | 500 to 5000 nM | < 50 nM | 500 to 5000 nM | – |
| CCN1CCC(Nc2ccc3c(c2)/C(=C(\c2cccc(N)c2)c2nc4ccccc4[nH]2)C(=O)N3)CC1 [Entry 21, (3Z)-3-[(3-aminophenyl) (1H-benzimidazol-2-yl)methylidene]-5-[(1-ethylpiperidin-4-yl)amino]-1,3-dihydro-2H-indol-2-one] | 50 to 500 nM | 50 to 500 nM | < 50 nM | 500 to 5000 nM | 500 to 5000 nM | < 50 nM | 500 to 5000 nM | – |
| O=C1Nc2ccc(NC3CCNCC3)cc2/C1=C(\c1ccccc1)c1nc2ccccc2[nH]1 [Entry 22, (3Z)-3-[1H-benzimidazol-2-yl(phenyl)methylidene] -5-(piperidin-4-ylamino)-1,3-dihydro-2H-indol-2-one] | 50 to 500 nM | < 50 nM | < 50 nM | 50 to 500 nM | 500 to 5000 nM | < 50 nM | 50 to 500 nM | – |
| CCN1CCC(Nc2ccc3c(c2)/C(=C(\c2cccc(C(=N)N)c2)c2nc4ccccc4[nH]2)C(=O)N3)CC1 [Entry 23, 3-((Z)-1H-benzimidazol-2-yl{5-[(1-ethylpiperidin-4-yl)amino]-2-oxo-1,2-dihydro-3H-indol-3-ylidene}methyl) benzenecarboximidamide] | 500 to 5000 nM | 500 to 5000 nM | 500 to 5000 nM | 500 to 5000 nM | 500 to 5000 nM | 500 to 5000 nM | 500 to 5000 nM | – |
| CC1(C)CC(Nc2ccc3c(c2)/C(=C(\c2ccccc2)c2nc4ccccc4[nH]2)C(=O)N3)CC(C)(C)N1 [Entry 25, (3Z)-3-[1H-benzimidazol-2-yl(phenyl)methylidene]-5-[(2,2,6,6-tetramethylpiperidin-4-yl)amino]-1,3-dihydro-2H-indol-2-one] | 500 to 5000 nM | 500 to 5000 nM | 50 to 500 nM | 500 to 5000 nM | 500 to 5000 nM | 50 to 500 nM | 500 to 5000 nM | – |
| O=C1Nc2ccc(NC3CC4CCC(C3)N4)cc2/C1=C(\c1ccccc1)c1nc2ccccc2[nH]1 (stereo not shown) [Entry 31, (3Z)-5-(8-azabicyclo[3.2.1]oct-3-ylamino)-3-[1H-benzimidazol-2-yl(phenyl)methylidene]-1,3-dihydro-2H-indol-2-one] | 500 to 5000 nM | 50 to 500 nM | 50 to 500 nM | 500 to 5000 nM | 500 to 5000 nM | 50 to 500 nM | 500 to 5000 nM | – |

Results, then the molecule that gave them:

| IC50 (Flt-1) | IC50 (Fyn) | IC50 (PDGFR alpha) | IC50 (IRK) | IC50 (EGFR) | IC50 [1] | IC50 (EphA2) | IC50 (FGFR1) | Structure (SMILES) |
| --- | --- | --- | --- | --- | --- | --- | --- | --- |
| < 50 nM | < 50 nM | < 50 nM | 500 to 5000 nM | 50 to 500 nM | < 50 nM | 500 to 5000 nM | < 50 nM | CCN1CCC(Nc2ccc3c(c2)/C(=C(\c2cccc(OC)c2)c2nc4ccccc4[nH]2)C(=O)N3)CC1 [Entry 26, (3Z)-3-{1H-benzimidazol-2-yl [3-(methyloxy)phenyl]methylidene}-5-[(1-ethylpiperidin-4-yl)amino]-1,3-dihydro-2H-indol-2-one] |
| < 50 nM | < 50 nM | < 50 nM | 50 to 500 nM | 50 to 500 nM | < 50 nM | 50 to 500 nM | < 50 nM | CCN1CCC(Nc2ccc3c(c2)/C(=C(\c2cccc(Cl)c2)c2nc4ccccc4[nH]2)C(=O)N3)CC1 [Entry 27, (3Z)-3-[1H-benzimidazol-2-yl(3-chlorophenyl)methylidene]-5-[(1-ethylpiperidin-4-yl)amino]-1,3-dihydro-2H-indol-2-one] |
| 50 to 500 nM | 50 to 500 nM | < 50 nM | 500 to 5000 nM | 500 to 5000 nM | < 50 nM | 500 to 5000 nM | – | CCN1CCC(Nc2ccc3c(c2)/C(=C(\c2ccccc2)c2nc(CCN4C(=O)c5ccccc5C4=O)c[nH]2)C(=O)N3)CC1 [Entry 28, 2-(2-{2-[(Z)-{5-[(1-ethylpiperidin-4-yl)amino]-2-oxo-1,2-dihydro-3H-indol-3-ylidene}(phenyl)methyl]-1H-imidazol-4-yl}ethyl)-1H-isoindole-1,3(2H)-dione] |
| 500 to 5000 nM | 50 to 500 nM | 50 to 500 nM | 500 to 5000 nM | 500 to 5000 nM | < 50 nM | 500 to 5000 nM | – | CN(C)CCN1CCC(Nc2ccc3c(c2)/C(=C(\c2ccccc2)c2nc4ccccc4[nH]2)C(=O)N3)CC1 [Entry 29, (3Z)-3-[1H-benzimidazol-2-yl(phenyl)methylidene]-5-({1-[2-(dimethylamino)ethyl]piperidin-4-yl}amino)-1,3-dihydro-2H-indol-2-one] |
| 500 to 5000 nM | 500 to 5000 nM | 500 to 5000 nM | 500 to 5000 nM | 500 to 5000 nM | 50 to 500 nM | 500 to 5000 nM | – | CS(=O)(=O)N1CCC(Nc2ccc3c(c2)/C(=C(\c2ccccc2)c2nc4ccccc4[nH]2)C(=O)N3)CC1 [Entry 30, (3Z)-3-[1H-benzimidazol-2-yl(phenyl)methylidene]-5-{[1-(methylsulfonyl)piperidin-4-yl]amino}-1,3-dihydro-2H-indol-2-one] |
| 50 to 500 nM | < 50 nM | < 50 nM | 500 to 5000 nM | 500 to 5000 nM | < 50 nM | 500 to 5000 nM | – | CCN1CCC(Oc2ccc3c(c2)/C(=C(\c2cccc(OC)c2)c2nc4ccccc4[nH]2)C(=O)N3)CC1 [Entry 32, (3Z)-3-{1H-benzimidazol-2-yl[3-(methyloxy)phenyl]methylidene}-5-[(1-ethylpiperidin-4-yl)oxy]-1,3-dihydro-2H-indol-2-one] |
| 50 to 500 nM | < 50 nM | < 50 nM | 500 to 5000 nM | 500 to 5000 nM | < 50 nM | 500 to 5000 nM | 50 to 500 nM | CCN1CCC(Oc2ccc3c(c2)/C(=C(\c2cc(F)cc(F)c2)c2nc4ccccc4[nH]2)C(=O)N3)CC1 [Entry 33, (3Z)-3-[1H-benzimidazol-2-yl(3,5-difluorophenyl)methylidene]-5-[(1-ethylpiperidin-4-yl)oxy]-1,3-dihydro-2H-indol-2-one] |
| 500 to 5000 nM | < 50 nM | < 50 nM | 500 to 5000 nM | 500 to 5000 nM | < 50 nM | 500 to 5000 nM | – | O=C1Nc2ccc(OC3CCN(Cc4ccccc4)CC3)cc2/C1=C(\c1ccccc1)c1nc2ccccc2[nH]1 [Entry 34, (3Z)-3-[1H-benzimidazol-2-yl(phenyl)methylidene]-5-{(1-(phenylmethyl)piperidin-4-yl]oxy}-1,3-dihydro-2H-indol-2-one] |
